According to patent US6331555A, “Treatment of platelet derived growth factor related disorders such as cancers” (priority 1999, dated 2001):
Like-named read-outs stand apart in the source and are kept apart here.

Key:
[1] = system: ovarian carcinoma primary tumor cells; assay: Growth of primary tumor cells from ovarian carcinoma patients; format: cell-based, human; parameters: tumor cell growth: dose or concentration left out as unconfirmed
Description: Viable tumors were placed into medium by the pathologist at the referring institution immediately after surgery, and shipped to Oncotech by overnight delivery. As soon as a tumor was received, a portion was fixed in formalin for sectioning and the remainder trimmed of necrotic, connective and adipose tissues. All tumor manipulations were performed aseptically. The remaining tumor was placed into a Petri dish containing 5 mL of medium (RPMI 1640 supplemented with 10% FBS, 100 IU/mL penicillin, […] streptomycin and L-glutamine) and disaggregated mechanically with scissors into pieces 2 mm or smaller. […]
After enzymatic dispersion into a near single-cell suspension, tumor cells were filtered through nylon mesh, washed in medium, suspended in soft agarose (0.12%) and plated at approximately 20,000 cells per well onto an agarose underlayer (0.4%) in 24-well plates. […] After the appropriate labeling period, tissue culture plates were heated at 60° C. to melt the agarose, the cells harvested with a micro-harvester onto glass fiber filters and the radioactivity determined. Percent inhibition (PCI) was determined using the formula: PCI=1-(CPM treatment group […] CPM control group). Determinations of control group proliferation were performed in quadruplicate, while treatment group proliferation was determined in triplicate. […]

Calu-3 = assay: Tumor cell line growth; format: cell-based; conditions: Homo sapiens, Calu-3, 96 h; lung, 4 days
Description: (§1) The assay measures protein content of acid-fixed cells using the counterion binding dye sulforhodamine B (SRB, Sigma). […] For other cell lines, the cells (2000 cells/well in 100 μL) were introduced into wells immediately after dispensing the drug solutions. After 4 days (37° C., 5% CO2) the monolayers were washed 3 times with PBS and fixed with 200 μL ice-cold 10% TCA (Fisher Scientific), and kept at 4° C. for 60 min. The TCA was removed and the fixed monolayers were washed 5 times with tap water and allowed to dry completely at room temperature on absorbent paper. The cellular protein was stained for 10 min with 100 μL 0.4% SRB dissolved in 1% acetic acid. After 5 washes with tap water, the dye was solubilized in 10 mM Tris base (100 μL per well) and absorbance read at 570 nm on a Dynatech plate reader model MR5000. Growth inhibition data are expressed as a percentage of absorbance detected in control wells which were treated with 0.4% DMSO alone. DMSO controls were not different from cells grown in regular growth medium. IC50 values were determined using a four parameter curve fit function.
(§2) For K562, DlB, L1210, 7TDl, T27A, and Colo320 DM cells, an MTT assay was used to assess cell growth. […] The cells were incubated at 37° C. for 4 days in a humidified 7% CO2 atmosphere. At the end point, […] of MTT (5 mg/mL in PBS, Sigma) was added to each well. The plates were incubated at 37° C. for 4 hr followed by addition of […] of solubilization solution (20% w/v of SDS in 50% N, N-dimethylformamide, pH 4.7) to each well. The plates were incubated overnight in a sealed container with a humidified atmosphere. The absorbance was determined at 570 nm wavelength with a reference wavelength of 630 nm using an ELISA plate reader.

A172 = assay: Tumor cell line growth; format: cell-based; conditions: Homo sapiens, A 172, 96 h; glioma, 4 days
Description: as §1, §2

SKOV3T = assay: Tumor cell line growth; format: cell-based; conditions: Homo sapiens
Description: as §1, §2

Calu-6 = assay: Tumor cell line growth; format: cell-based; conditions: Homo sapiens, Calu-6, 96 h; lung, 4 days
Description: as §1, §2

MDA MB 468 = assay: Tumor cell line growth; format: cell-based; conditions: Homo sapiens, MDA-MB-468, 96 h; breast, 4 days
Description: as §1, §2

ZR 75-1 = assay: Tumor cell line growth; format: cell-based; conditions: Homo sapiens, ZR-75-1, 96 h; breast, 4 days
Description: as §1, §2

Ovcar3 = assay: Tumor cell line growth; format: cell-based; conditions: Homo sapiens, OVCAR-3, 96 h; ovarian, 4 days
Description: as §1, §2

U1240 = assay: Tumor cell line growth; format: cell-based; conditions: 96 h; glioma, 4 days
Description: as §1, §2

HBL100 = assay: Tumor cell line growth; format: cell-based; conditions: Homo sapiens, HBL-100, 96 h; breast, 4 days
Description: as §1, §2

SF767T = assay: Tumor cell line growth; format: cell-based; conditions: Homo sapiens
Description: as §1, §2

SKBR3 = assay: Tumor cell line growth; format: cell-based; conditions: Homo sapiens, SK-BR-3, 96 h; breast, 4 days
Description: as §1, §2

DU145 = assay: Tumor cell line growth; format: cell-based; conditions: Homo sapiens, DU-145, 96 h; prostate, 4 days
Description: as §1, §2

BT474 = assay: Tumor cell line growth; format: cell-based; conditions: Homo sapiens, BT-474, 96 h; breast, 4 days
Description: as §1, §2

SF763T = assay: Tumor cell line growth; format: cell-based; conditions: Homo sapiens, 96 h; glioma, 4 days
Description: as §1, §2

K562 = assay: Tumor cell line growth; format: cell-based; conditions: Homo sapiens, K562, 96 h; leukemia, 4 days
Description: as §1, §2

A375 = assay: Tumor cell line growth; format: cell-based; conditions: Homo sapiens, A-375, 96 h; melanoma, 4 days
Description: as §1, §2

T47D = assay: Tumor cell line growth; format: cell-based; conditions: Homo sapiens, 96 h, breast, 4 days
Description: as §1, §2

C81-61 = assay: Tumor cell line growth; format: cell-based; conditions: Homo sapiens, C8161, 96 h; melanoma, 4 days
Description: as §1, §2

A549 = assay: Tumor cell line growth; format: cell-based; conditions: Homo sapiens, A549, 96 h; lung, 4 days
Description: as §1, §2

[2] = PDGF-R expression ++, read-out: SRB

**Q.** What does the source list for Cc1oncc1C(=O)Nc1ccc(C(F)(F)F)cc1 [Compound A10, 5-methylisoxazole-4 carboxylic acid-(4-trifluromethyl)-anilide]?
**A.** tumor cell growth [1]: tumor cell growth decreased for both types of tumors; IC50 ([1]; Homo sapiens, range over six patients, read-out: IC50, ovarian tumors): 20 to 140 µM; IC50 (Calu-3): > 400 µM; IC50 (A172): 32 µM; IC50 (SKOV3T; 96 h, ovarian, 4 days, read-out: IC50): 40 µM; IC50 (SKOV3T; [2]): 50 µM; IC50 (Calu-6): 70 µM; IC50 (MDA MB 468): 150 µM; IC50 (ZR 75-1): 355 µM; IC50 (Ovcar3): > 100 µM; IC50 (U1240): 250 µM; IC50 (HBL100): > 400 µM; IC50 (SF767T; 96 h, glioma, 4 days, read-out: IC50): 3 µM; IC50 (SF767T; [2]): 3 µM; IC50 (SKBR3): > 400 µM; IC50 (DU145): > 100 µM; IC50 (BT474): > 100 µM; IC50 (SF763T): 0.8 µM; IC50 (K562): 26 µM; IC50 (A375): 25 µM; IC50 (T47D): 195 µM; IC50 (C81-61): 40 µM; IC50 (A549): 118 µM
